Laboratory results: patent US12396988B2, “Methods of using muscarinic antagonists in the treatment of depression” (BOARD OF REGENTS, THE UNIVERSITY OF TEXAS SYSTEM, priority 2019, dated 2025)
Entries after “also recorded” stand apart in the source; their conditions may differ. Structures can show the parent of a compound that is named as a salt.

How the values were obtained:
[1] = tested on: rats; details: cited from earlier work
[2] = tested on: humans; details: cited from earlier work
[3] = tested on: rats; assay: Forced swim test (FST); assay type: in vivo; details: 3 mg/kg, 30 min before a 15-min swim, FIG. 4
Procedure: In the FST, the rats are injected with a test compound and 30 minutes later placed individually in a cylindrical container filled with water at room temperature. The rat's behavior is videotaped from above and is later scored by a trained observed who is blind to the drug conditions. Behavior is classified every 5 seconds over the 15 minute swim period as the following: immobility the rat is hanging quietly in the water, making only enough movement to keep its nose out of the water; swimming moving limbs in an active manner, climbing or actively moving its forepaws against the side of the chamber.
Rats of both sexes as well as rats from the Flinders straw were used for forced swim tests. The rats were injected with a saline control or CJ2100 (0.1 mg/kg, 0.3 mg/kg, 1 mg/kg, or 3 mg/kg) and 30 min later placed individually a cylindrical container (46 cm tall×20 cm, diameter) filled to 30 cm with 25° C. water for a single 15-min forced swim test. Rat behavior was videotaped from above and later scored by a trained observer who was blind to the drug conditions. Behavior was classified every 5 seconds over the 15 minute swim period as following: immobility rat was hanging quietly in the water, making only enough movement to keep its nose out of the water; swimming moving limbs in an active manner, climbing, or actively moving its forepaws against the side of the chamber. […]

[4] = tested on: rats; assay: Cognitive evaluation: psychomotor vigilance (PVT) touch-screen task, attention; assay type: in vivo; details: doses 0.1-10 mg/kg, FIG. 5 right panel
Text: Psychomotor vigilance is used to evaluate drug effects of attention and vigilance over a period of time. Championed by David Dinges of U. Penn School of Medicine, it is a reaction timed task to measure the speed with which subjects responds to a visual stimulus. In the task, stimuli of varying intensity are presented to a subject (a rat) in randomized location on the screen following unpredictable intervals. The reaction time of the rat to the stimuli will provide a reliable attention threshold in each individual subject. Attention will decrease over time which serves as a baseline for degradation of sustained vigilance. For these studies, a stimulus is presented on a screen in a random location following a variable time interval (5, 15, 30 seconds). Duration of presentation of the stimulus is 2 seconds on first trial. If the correct stimulus is touched by the rat within 2 seconds, a mild reward is delivered and duration of stimulus presentation is […] by 0.25 seconds for subsequent trials (across 500 trials).
(§1) Additional tests involved a novel touch-screen procedure that evaluated memory (delayed-matching-to-sample, DMTS) and attention (psychomotor vigilance, PVT).
Psychomotor vigilance (PVT) is used to evaluate drug effects on attention and vigilance over a period of time. Championed by David Dinges of U. Penn. […]

[5] = target: T1, M2 receptor (Rattus norvegicus, UniProt P10980); assay: Cardiovascular assay (bradycardia test): antagonism of arecoline-induced bradycardia, telemetry; assay type: in vivo; details: 1 mg/kg test compound s.c. before 10 mg/kg arecoline s.c., rats, FIG. 1
T1 construct: To measure changes in heart rate and mean arterial pressure, rats were implanted with telemetric transmitters; from tissue; host or cells: intact living rats (cardiovascular system, telemetry)
T1 sequence (P10980 1-466): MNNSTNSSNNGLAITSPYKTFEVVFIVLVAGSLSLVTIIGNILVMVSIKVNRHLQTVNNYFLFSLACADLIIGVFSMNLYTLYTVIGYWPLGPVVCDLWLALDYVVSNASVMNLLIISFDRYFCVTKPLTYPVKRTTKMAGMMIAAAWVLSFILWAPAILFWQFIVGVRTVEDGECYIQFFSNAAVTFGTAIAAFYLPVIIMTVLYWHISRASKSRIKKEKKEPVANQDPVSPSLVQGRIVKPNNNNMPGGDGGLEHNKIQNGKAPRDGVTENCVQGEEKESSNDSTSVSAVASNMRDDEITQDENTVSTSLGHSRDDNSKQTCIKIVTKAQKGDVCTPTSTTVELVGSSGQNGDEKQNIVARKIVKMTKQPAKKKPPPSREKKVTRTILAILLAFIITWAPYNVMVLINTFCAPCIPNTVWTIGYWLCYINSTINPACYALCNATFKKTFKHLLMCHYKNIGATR
Text: All rats continued to have free access to food and water at all times.

[6] = tested on: rats; assay: Drug discrimination test (arecoline vs saline; discriminative stimulus and rate-decreasing effects of arecoline); assay type: in vivo, Sprague-Dawley rats; details: 1.0 mg/kg CJ2100, rats, FIG. 2
Text: Rats are initially trained to nose-poke 10 times in any aperture to receive a dipper of Ensure (fixed ratio 10 FR-10 schedule of reinforcement). Nose-poke biases are noted, and the following assignments are made for the 2-nose-poke condition: 1) approximately half of the rats in each group will have the drug-associated aperture on the left, and the remaining rats will have the drug-associated aperture on the right; 2) the drug-associated aperture is assigned to the non-preferred side in half of the rats.
During training, the rats are injected with saline or their training drug and immediately placed in the chamber for a 5-min blackout, followed by a 20-min response period. […]
When these criteria have been met on 3 consecutive days, testing can begin. […] When the effects of putative antagonists are to be evaluated, these drugs are given 15 min before the start of the session, and the training drug is injected immediately before the rat is placed in the chamber. […]
Data analysis: Full generalization to a test compound is defined as >85% responding on the drug-appropriate aperture, and completing at least one ratio. Discrimination data are expressed as the percent responses on the drug-appropriate aperture, out of the total number of responses made in both apertures. Rates of responding are calculated as well: total number of responses/time during the light-on parts of the session. […]

[7] = tested on: rats; assay: Cognitive evaluation: delayed-matching-to-sample (DMTS) touch-screen task, short-term memory; assay type: in vivo; details: doses 0.1-3.2 mg/kg, FIG. 5 left panel
Text: In cognitive evaluation tests, rats are exposed to a touch screen procedure that evaluates memory (delayed matching to sample, DMTS) and attention (psychomotor vigilance). In the DTMS, a commonly used recognition task to test short-term memory, the subject (a rat) is presented with a sample stimulus. In our procedure, when the rats touch the sample stimulus it terminates on the screen. After a pre-set delay two comparison stimuli appear. A touch response on the comparison stimulus that matches some physical property of the sample stimulus (i.e. color) results in reward delivery. Touching the incorrect comparison stimulus results in a timeout. Accuracy is then plotted vs different delay values to determine a “forgetting function”. This same procedure has been used by many others to assess the deleterious effects of various classes of psychoactive drugs.
as §1
In the DMTS, a commonly used recognition task to test short-term memory, rats were presented with a sample stimulus. When the rats touched the sample stimulus, it terminated on the screen. After a pre-set delay, two comparison stimuli appeared. […] Accuracy was then plotted vs. different delay values to determine a “forgetting function.”

[8] = 1.0 mg/kg scopolamine (Winger et al. 2020)

CN1[C@@H]2C[C@@H](OC(=O)[C@H](CO)c3ccccc3)C[C@H]1[C@@H]1O[C@@H]12 [scopolamine]
Effect on the discriminative stimulus of arecoline [1, 8]: without affecting the discriminative stimulus of arecoline
Effect on the rate-modifying effects of arecoline [1, 8]: appeared to increase the rate-modifying effects of arecoline
Ability to modify the discriminative stimulus effects of arecoline ([1]; compared with CJ2100): much less able than CJ2100 to modify
Ability to modify the rate-suppressing effects of arecoline ([1]; compared with CJ2100): much less able than CJ2100 to modify
Cognitive side effects [2]: severe cognitive deficits; also recorded: cognitive impairment including memory disturbances
Anti-depressant effect in humans ([2]; oral and intravenous treatment): rapid anti-depressant effects

CN1CCC=C(c2nc(C3CC3)no2)C1 [CJ2100, 3-(3-alkyl-1,2,4-oxadiazol-5-yl)-1,2,5,6-tetrahydro-1-methylpylidine oxalate]
Immobility in forced swim test [3]: decrease in immobility
Swimming in forced swim test [3]: significant increase in swimming
Effect on ability of the rats to respond in PVT task (cognitive effect) [4]: did not modify the ability of the rats to respond; also recorded: silent
Mean titration duration of the stimulus (PVT) [4]: approximately 2 sec
Effect on arecoline-induced bradycardia [5]: attenuates this effect; also recorded: complete attenuation of this effect
Shift to the right in the discriminative stimulus effects of arecoline [6]: ~1 log unit
Effect on ability of the rats to respond in DMTS task (cognitive effect) [7]: did not modify the ability of the rats to respond; also recorded: silent
Mean duration of short term memory (DMTS) [7]: approximately 7 sec
